Source: ChEMBL document CHEMBL1201862, “PubChem BioAssay data set” (2004)
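Five compound concentrations were applied to cells in 96-well plates for 48 hours; endpoints were derived by simple linear interpolation of the resulting dose-response curve. The concentration for 50% growth inhibition is given as GI50.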 Calls of active or inactive are those of the source. Rule as the data show it: active = GI50 up to about 1.1 µM and inactive = higher.

How the values were obtained:
Assay in all cases: NCI tumour cell line growth inhibition, 48 h
A498 = system: A498
ACHN = system: ACHN
CAKI-1 = system: CAKI-1
CCRF-CEM = system: CCRF-CEM
COLO 205 = system: COLO 205
DLD-1 = system: DLD-1
DMS-273 = system: DMS-273
EKVX = system: EKVX
HCC 2998 = system: HCC 2998
HCT-116 = system: HCT-116
HCT-15 = system: HCT-15
HL-60 = system: HL-60
HOP-62 = system: HOP-62
HOP-92 = system: HOP-92
HT-29 = system: HT-29
IGROV-1 = system: IGROV-1
K562 = system: K562
KM-20L2 = system: KM-20L2
KM12 = system: KM12
LOX IMVI = system: LOX IMVI
LXFL 529 = system: LXFL 529
M14 = system: M14
M19-MEL = system: M19-MEL
MOLT-4 = system: MOLT-4
Malme-3M = system: Malme-3M
NCI-H23 = system: NCI-H23
NCI-H460 = system: NCI-H460
NCI-H522 = system: NCI-H522
OVCAR-3 = system: OVCAR-3
OVCAR-5 = system: OVCAR-5
OVCAR-8 = system: OVCAR-8
RPMI-8226 = system: RPMI-8226
RXF 393 = system: RXF 393
RXF 631 = system: RXF 631
SF-268 = system: SF-268
SF-295 = system: SF-295
SF-539 = system: SF-539
SK-MEL-28 = system: SK-MEL-28
SK-MEL-2 = system: SK-MEL-2
SK-MEL-5 = system: SK-MEL-5
SK-OV-3 = system: SK-OV-3
SN12C = system: SN12C
SNB-19 = system: SNB-19
SNB-75 = system: SNB-75
SNB-78 = system: SNB-78
SR = system: SR
SW-620 = system: SW-620
TK-10 = system: TK-10
U-251 = system: U-251
UACC-257 = system: UACC-257
UACC-62 = system: UACC-62
UO-31 = system: UO-31
XF498 = system: XF498
A549 = system: A549
DMS-114 = system: DMS-114
HOP-18 = system: HOP-18

SMILES: CN(C)[C@@H]1C(O)=C(C(=O)NCN2CCN(C(=N)NC(=N)N)CC2)C(=O)[C@@]2(O)C(O)=C3C(=O)c4c(O)cccc4[C@@](C)(O)[C@H]3C[C@@H]12
- GI50 (A498): 1.14 µM (inactive)
- GI50 (ACHN): 0.306 µM (active)
- GI50 (CAKI-1): 0.274 µM (active)
- GI50 (CCRF-CEM): 0.11 µM (active)
- GI50 (COLO 205): 0.0798 µM (active)
- GI50 (DLD-1): 0.0466 µM (active)
- GI50 (DMS-273): 0.252 µM (active)
- GI50 (EKVX): 0.286 µM (active)
- GI50 (HCC 2998): 0.337 µM (active)
- GI50 (HCT-116): 0.221 µM (active)
- GI50 (HCT-15): 0.0721 µM
- GI50 (HL-60): 0.0236 µM (active)
- GI50 (HOP-62): 1.14 µM (inactive)
- GI50 (HOP-92): 0.279 µM (active)
- GI50 (HT-29): 0.123 µM (active)
- GI50 (IGROV-1): 0.207 µM (active)
- GI50 (K562): 0.0401 µM (active)
- GI50 (KM-20L2): 0.299 µM (active)
- GI50 (KM12): 0.368 µM (active)
- GI50 (LOX IMVI): 0.156 µM (active)
- GI50 (LXFL 529): 0.0857 µM (active)
- GI50 (M14): 0.279 µM (active)
- GI50 (M19-MEL): 0.31 µM (active)
- GI50 (MOLT-4): 0.0597 µM (active)
- GI50 (Malme-3M): 0.269 µM (active)
- GI50 (NCI-H23): 0.136 µM (active)
- GI50 (NCI-H460): 0.324 µM (active)
- GI50 (NCI-H522): 0.0329 µM (active)
- GI50 (OVCAR-3): 0.287 µM (active)
- GI50 (OVCAR-5): 0.282 µM (active)
- GI50 (OVCAR-8): 0.273 µM (active)
- GI50 (RPMI-8226): 0.0315 µM (active)
- GI50 (RXF 393): 0.12 µM (active)
- GI50 (RXF 631): 0.166 µM (active)
- GI50 (SF-268): 0.518 µM (active)
- GI50 (SF-295): 0.506 µM (active)
- GI50 (SF-539): 0.216 µM (active)
- GI50 (SK-MEL-28): 0.238 µM (active)
- GI50 (SK-MEL-2): 0.113 µM (active)
- GI50 (SK-MEL-5): 0.183 µM (active)
- GI50 (SK-OV-3): 1.29 µM (inactive)
- GI50 (SN12C): 0.338 µM (active)
- GI50 (SNB-19): 0.314 µM (active)
- GI50 (SNB-75): 0.138 µM (active)
- GI50 (SNB-78): 0.0698 µM (active)
- GI50 (SR): 0.0406 µM (active)
- GI50 (SW-620): 0.16 µM (active)
- GI50 (TK-10): 0.468 µM (active)
- GI50 (U-251): 0.269 µM (active)
- GI50 (UACC-257): 0.324 µM (active)
- GI50 (UACC-62): 0.172 µM (active)
- GI50 (UO-31): 0.301 µM (active)
- GI50 (XF498): 0.091 µM (active)

SMILES: O=C1c2c(O)cc(O)cc2OC(c2ccc(O)cc2O)C1O (stereo unspecified)
- GI50 (A549): 79.6 µM (inactive)
- GI50 (CAKI-1): 59.3 µM (inactive)
- GI50 (DLD-1): 50.9 µM (inactive)
- GI50 (DMS-114): 32.5 µM (inactive)
- GI50 (EKVX): 60.8 µM (inactive)
- GI50 (HOP-18): 31.8 µM (inactive)
- GI50 (KM-20L2): 54 µM (inactive)
- GI50 (KM12): 60.4 µM (inactive)
- GI50 (LXFL 529): 36.1 µM (inactive)
- GI50 (M19-MEL): 29.9 µM (inactive)
- GI50 (MOLT-4): 28.6 µM (inactive)
- GI50 (NCI-H23): 57.5 µM (inactive)
- GI50 (NCI-H460): 57.8 µM (inactive)
- GI50 (RXF 631): 40.5 µM (inactive)
- GI50 (SF-295): 56.4 µM (inactive)
- GI50 (SNB-78): 42.1 µM (inactive)
- GI50 (SR): 25.7 µM (inactive)
- GI50 (TK-10): 57.4 µM (inactive)
